Measurements reported in PubChem BioAssay AID180 (DTP/NCI, 2004).
“And” between values parts separate entries of the source, which are not always exact repeats. Identical values can stand only once.

System: BDF1 mice, Adenocarcinoma 755 s.c., tumor weight T/C
Assay: NCI In Vivo Anticancer Drug Screen. Data for tumor model Adenocarcinoma 755 (subcutaneous) in B6D2F1 (BDF1) mice
Details: endpoint: mean tumor weight, higher = larger tumour
Method in brief: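 Compound activity was tested in mice carrying transplanted tumors. Survival or tumor size was measured, and each value is the treated-group measurement divided by that of the vehicle-treated control group (T/C).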

Structure (SMILES): Cn1cnc([N+](=O)[O-])c1Sc1ncnc2nc[nH]c12
- T/C (dose: 0.03 mg/kg/injection, schedule: Q01DX011 (oral), vehicle: other): 79 % of control
- T/C (dose: 0.06 mg/kg/injection, schedule: Q01DX011 (oral), vehicle: other): 63 % of control
- T/C (dose: 0.12 mg/kg/injection, schedule: Q01DX011 (oral), vehicle: other): 48 % of control
- T/C (dose: 0.25 mg/kg/injection, schedule: Q01DX006 (iv), vehicle: other): 64 % of control
- T/C (dose: 0.25 mg/kg/injection, schedule: Q01DX011 (oral), vehicle: other): 36 % of control
- T/C (dose: 0.5 mg/kg/injection, schedule: Q01DX006 (iv), vehicle: other): 58 % of control
- T/C (dose: 0.5 mg/kg/injection, schedule: Q01DX011 (oral), vehicle: other): 40 % of control
- T/C (dose: 1.0 mg/kg/injection, schedule: Q01DX006 (iv), vehicle: other): 16 % of control
- T/C (dose: 1.0 mg/kg/injection, schedule: Q01DX011 (oral), vehicle: other): 5 % of control and 10 % of control
- T/C (dose: 2.0 mg/kg/injection, schedule: Q01DX006 (iv), vehicle: other): 9 % of control
- T/C (dose: 2.0 mg/kg/injection, schedule: Q01DX011 (ip), vehicle: other): 3 % of control
- T/C (dose: 2.5 mg/kg/injection, schedule: Q01DX011 (ip), vehicle: methylcellulose (MC)): 15 % of control and 36 % of control
- T/C (dose: 2.5 mg/kg/injection, schedule: Q01DX011 (oral), vehicle: other): 2 % of control
- T/C (dose: 3.1 mg/kg/injection, schedule: Q01DX001 (ip), vehicle: other): 56 % of control
- T/C (dose: 4.0 mg/kg/injection, schedule: Q01DX006 (iv), vehicle: other): 3 % of control
- T/C (dose: 4.0 mg/kg/injection, schedule: Q01DX011 (im), vehicle: other): 3 % of control
- T/C (dose: 4.0 mg/kg/injection, schedule: Q01DX011 (iv), vehicle: other): 17 % of control
- T/C (dose: 4.0 mg/kg/injection, schedule: Q01DX011 (sc), vehicle: other): 1 % of control
- T/C (dose: 4.0 mg/kg/injection, schedule: Q#A X022 (ip), vehicle: other): 2 % of control
- T/C (dose: 5.0 mg/kg/injection, schedule: Q01DX011 (ip), vehicle: methylcellulose (MC)): 4 % of control and 7 % of control
- T/C (dose: 6.3 mg/kg/injection, schedule: Q01DX001 (ip), vehicle: other): 52 % of control
- T/C (dose: 8.0 mg/kg/injection, schedule: Q01DX011 (im), vehicle: other): 1 % of control
- T/C (dose: 8.0 mg/kg/injection, schedule: Q01DX011 (iv), vehicle: other): 2 % of control
- T/C (dose: 9.5 mg/kg/injection, schedule: Q01DX011 (ip), vehicle: methylcellulose (MC)): 2 % of control and 8 % of control
- T/C (dose: 10.0 mg/kg/injection, schedule: Q01DX011 (ip), vehicle: methylcellulose (MC)): 4 % of control and 7 % of control
- T/C (dose: 12.0 mg/kg/injection, schedule: Q03DX004 (ip), vehicle: other): 2 % of control
- T/C (dose: 12.5 mg/kg/injection, schedule: Q01DX001 (ip), vehicle: other): 28 % of control
- T/C (dose: 16.0 mg/kg/injection, schedule: Q01DX011 (iv), vehicle: other): 1 % of control
- T/C (dose: 19.0 mg/kg/injection, schedule: Q01DX011 (ip), vehicle: methylcellulose (MC)): 2 % of control
- T/C (dose: 20.0 mg/kg/injection, schedule: Q01DX011 (oral), vehicle: other): 7 % of control
- T/C (dose: 25.0 mg/kg/injection, schedule: Q01DX001 (ip), vehicle: other): 1 % of control and 2 % of control and 20 % of control
- T/C (dose: 28.0 mg/kg/injection, schedule: Q07DX002 (ip), vehicle: other): 17 % of control
- T/C (dose: 38.0 mg/kg/injection, schedule: Q01DX011 (ip), vehicle: methylcellulose (MC)): 2 % of control
- T/C (dose: 40.0 mg/kg/injection, schedule: Q01DX011 (oral), vehicle: other): 9 % of control
- T/C (dose: 50.0 mg/kg/injection, schedule: Q01DX001 (ip), vehicle: other): 41 % of control
- T/C (dose: 56.0 mg/kg/injection, schedule: Q07DX002 (ip), vehicle: other): 3 % of control
- T/C (dose: 96.0 mg/kg/injection, schedule: Q03DX004 (ip), vehicle: other): 1 % of control
- T/C (dose: 100.0 mg/kg/injection, schedule: Q01DX001 (ip), vehicle: other): 1 % of control
- T/C (dose: 112.0 mg/kg/injection, schedule: Q07DX002 (ip), vehicle: other): 8 % of control
- T/C (dose: 200.0 mg/kg/injection, schedule: Q01DX001 (ip), vehicle: other): 45 % of control

Structure (SMILES): CCOC(N)=O
- T/C (dose: 62.5 mg/kg/injection, schedule: Q#A X022 (ip), vehicle: saline): 52 % of control
- T/C (dose: 62.62 mg/kg/injection, schedule: Q01DX011 (ip), vehicle: carboxymethylcellulose (CMC)): 79 % of control
- T/C (dose: 102.5 mg/kg/injection, schedule: Q01DX011 (ip), vehicle: carboxymethylcellulose (CMC)): 94 % of control
- T/C (dose: 125.0 mg/kg/injection, schedule: Q01DX001 (ip), vehicle: saline): 121 % of control
- T/C (dose: 125.0 mg/kg/injection, schedule: Q01DX006 (iv), vehicle: saline): 75 % of control
- T/C (dose: 125.0 mg/kg/injection, schedule: Q01DX011 (im), vehicle: saline): 83 % of control
- T/C (dose: 125.0 mg/kg/injection, schedule: Q01DX011 (ip), vehicle: methylcellulose (MC)): 85 % of control
- T/C (dose: 125.0 mg/kg/injection, schedule: Q01DX011 (ip), vehicle: saline): 68 % of control
- T/C (dose: 125.0 mg/kg/injection, schedule: Q01DX011 (sc), vehicle: saline): 96 % of control
- T/C (dose: 125.0 mg/kg/injection, schedule: Q07DX002 (ip), vehicle: saline): 104 % of control
- T/C (dose: 125.0 mg/kg/injection, schedule: Q#A X022 (ip), vehicle: saline): 59 % of control
- T/C (dose: 125.25 mg/kg/injection, schedule: Q01DX011 (ip), vehicle: carboxymethylcellulose (CMC)): 63 % of control
- T/C (dose: 200.4 mg/kg/injection, schedule: Q01DX011 (ip), vehicle: carboxymethylcellulose (CMC)): 41 % of control and 50 % of control
- T/C (dose: 205.0 mg/kg/injection, schedule: Q01DX011 (ip), vehicle: carboxymethylcellulose (CMC)): 116 % of control
- T/C (dose: 250.0 mg/kg/injection, schedule: Q01DX001 (ip), vehicle: saline): 92 % of control and 93 % of control
- T/C (dose: 250.0 mg/kg/injection, schedule: Q01DX006 (iv), vehicle: saline): 74 % of control
- T/C (dose: 250.0 mg/kg/injection, schedule: Q01DX011 (im), vehicle: saline): 65 % of control
- T/C (dose: 250.0 mg/kg/injection, schedule: Q01DX011 (ip), vehicle: methylcellulose (MC)): 53 % of control
- T/C (dose: 250.0 mg/kg/injection, schedule: Q01DX011 (ip), vehicle: saline): 51 % of control
- T/C (dose: 250.0 mg/kg/injection, schedule: Q01DX011 (oral), vehicle: saline): 69 % of control
- T/C (dose: 250.0 mg/kg/injection, schedule: Q01DX011 (sc), vehicle: saline): 67 % of control
- T/C (dose: 250.0 mg/kg/injection, schedule: Q07DX002 (ip), vehicle: saline): 85 % of control
- T/C (dose: 250.0 mg/kg/injection, schedule: Q#A X022 (ip), vehicle: saline): 9 % of control
- T/C (dose: 328.0 mg/kg/injection, schedule: Q01DX011 (ip), vehicle: carboxymethylcellulose (CMC)): 41 % of control and 52 % of control
- T/C (dose: 375.0 mg/kg/injection, schedule: Q03DX004 (ip), vehicle: saline): 59 % of control
- T/C (dose: 500.0 mg/kg/injection, schedule: Q01DX001 (ip), vehicle: saline): 110 % of control and 85 % of control
- T/C (dose: 500.0 mg/kg/injection, schedule: Q01DX006 (iv), vehicle: saline): 38 % of control
- T/C (dose: 500.0 mg/kg/injection, schedule: Q01DX011 (im), vehicle: saline): 32 % of control
- T/C (dose: 500.0 mg/kg/injection, schedule: Q01DX011 (ip), vehicle: methylcellulose (MC)): 33 % of control
- T/C (dose: 500.0 mg/kg/injection, schedule: Q01DX011 (ip), vehicle: saline): 19 % of control
- T/C (dose: 500.0 mg/kg/injection, schedule: Q01DX011 (oral), vehicle: saline): 20 % of control
- T/C (dose: 500.0 mg/kg/injection, schedule: Q01DX011 (sc), vehicle: saline): 42 % of control
- T/C (dose: 500.0 mg/kg/injection, schedule: Q07DX002 (ip), vehicle: saline): 83 % of control
- T/C (dose: 501.0 mg/kg/injection, schedule: Q01DX011 (ip), vehicle: carboxymethylcellulose (CMC)): 17 % of control and 27 % of control
- T/C (dose: 546.6 mg/kg/injection, schedule: Q01DX011 (ip), vehicle: carboxymethylcellulose (CMC)): 22 % of control and 23 % of control
- T/C (dose: 750.0 mg/kg/injection, schedule: Q03DX004 (ip), vehicle: saline): 54 % of control
- T/C (dose: 820.0 mg/kg/injection, schedule: Q01DX011 (ip), vehicle: carboxymethylcellulose (CMC)): 10 % of control and 20 % of control
- T/C (dose: 1000.0 mg/kg/injection, schedule: Q01DX001 (ip), vehicle: saline): 49 % of control and 64 % of control
- T/C (dose: 1000.0 mg/kg/injection, schedule: Q01DX006 (iv), vehicle: saline): 21 % of control
- T/C (dose: 1000.0 mg/kg/injection, schedule: Q07DX002 (ip), vehicle: saline): 69 % of control

Structure (SMILES): CSc1nc(N)nc2nc[nH]c12
- T/C (dose: 0.6 mg/kg/injection, schedule: Q01DX011 (ip), vehicle: carboxymethylcellulose (CMC)): 51 % of control
- T/C (dose: 1.25 mg/kg/injection, schedule: Q01DX011 (ip), vehicle: carboxymethylcellulose (CMC)): 55 % of control
- T/C (dose: 2.5 mg/kg/injection, schedule: Q01DX011 (ip), vehicle: carboxymethylcellulose (CMC)): 75 % of control
- T/C (dose: 5.0 mg/kg/injection, schedule: Q01DX011 (ip), vehicle: carboxymethylcellulose (CMC)): 28 % of control
- T/C (dose: 15.0 mg/kg/injection, schedule: Q01DX011 (ip), vehicle: carboxymethylcellulose (CMC)): 1 % of control
